Test results reported in patent US20080051466A1, “Isoalpha acid based protein kinase modulation cancer treatment” (Metaproteomics, LLC, priority 2006, published 2008).

Experiments:
Experiment in all cases: KinaseProfiler Assay
Type in all cases: biochemical
CDK3/cyclinE = CDK3/cyclinE (Homo sapiens, UniProt Q00526); conditions: 50 ug/ml; read-out: CDK3/cyclinE, % of Control
CK1δ = CK1δ (Homo sapiens, UniProt P48730); conditions: read-out: CK1δ, % of Control
cSRC = cSRC (Homo sapiens, UniProt P12931); conditions: read-out: cSRC, % of Control
DRAK1 = target: T1, DRAK1 (Homo sapiens, UniProt Q9UEE5); conditions: read-out: DRAK1, % of Control
T1 sequence (Q9UEE5 1-414): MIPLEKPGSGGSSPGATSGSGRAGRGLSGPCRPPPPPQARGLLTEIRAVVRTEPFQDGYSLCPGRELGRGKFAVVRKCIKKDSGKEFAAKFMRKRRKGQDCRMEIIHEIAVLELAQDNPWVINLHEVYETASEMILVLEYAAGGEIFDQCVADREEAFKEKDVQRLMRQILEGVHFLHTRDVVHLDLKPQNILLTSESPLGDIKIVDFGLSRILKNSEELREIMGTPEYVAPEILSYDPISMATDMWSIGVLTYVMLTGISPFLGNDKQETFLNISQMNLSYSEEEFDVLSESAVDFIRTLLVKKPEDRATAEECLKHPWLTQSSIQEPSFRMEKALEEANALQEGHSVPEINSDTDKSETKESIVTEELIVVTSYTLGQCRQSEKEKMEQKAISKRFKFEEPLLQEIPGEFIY

Fer = Fer (Homo sapiens, UniProt P16591); conditions: read-out: Fer, % of Control
Fgr = Fgr (Homo sapiens, UniProt P09769); conditions: read-out: Fgr, % of Control
Fyn = Fyn (Homo sapiens, UniProt P06241); conditions: read-out: Fyn, % of Control
IGF-1R = IGF-1R (Homo sapiens, UniProt P08069); conditions: read-out: IGF-1R, % of Control
IRAK1 = IRAK1 (Homo sapiens, UniProt P51617); conditions: read-out: IRAK1, % of Control
MSK1 = MSK1 (Homo sapiens, UniProt O75582); conditions: read-out: MSK1, % of Control
MSK2 = MSK2 (Homo sapiens, UniProt O75676); conditions: read-out: MSK2, % of Control
PKBβ = PKBβ (Homo sapiens, UniProt P31751); conditions: read-out: PKBβ, % of Control
PKCβII = PKCβII (Homo sapiens, UniProt P05771); conditions: read-out: PKCβII, % of Control
PRAK = PRAK (Homo sapiens, UniProt Q8IW41); conditions: read-out: PRAK, % of Control
TBK1 = target: T2, TBK1 (Homo sapiens, UniProt Q9UHD2); conditions: read-out: TBK1, % of Control
T2 sequence (Q9UHD2 1-729): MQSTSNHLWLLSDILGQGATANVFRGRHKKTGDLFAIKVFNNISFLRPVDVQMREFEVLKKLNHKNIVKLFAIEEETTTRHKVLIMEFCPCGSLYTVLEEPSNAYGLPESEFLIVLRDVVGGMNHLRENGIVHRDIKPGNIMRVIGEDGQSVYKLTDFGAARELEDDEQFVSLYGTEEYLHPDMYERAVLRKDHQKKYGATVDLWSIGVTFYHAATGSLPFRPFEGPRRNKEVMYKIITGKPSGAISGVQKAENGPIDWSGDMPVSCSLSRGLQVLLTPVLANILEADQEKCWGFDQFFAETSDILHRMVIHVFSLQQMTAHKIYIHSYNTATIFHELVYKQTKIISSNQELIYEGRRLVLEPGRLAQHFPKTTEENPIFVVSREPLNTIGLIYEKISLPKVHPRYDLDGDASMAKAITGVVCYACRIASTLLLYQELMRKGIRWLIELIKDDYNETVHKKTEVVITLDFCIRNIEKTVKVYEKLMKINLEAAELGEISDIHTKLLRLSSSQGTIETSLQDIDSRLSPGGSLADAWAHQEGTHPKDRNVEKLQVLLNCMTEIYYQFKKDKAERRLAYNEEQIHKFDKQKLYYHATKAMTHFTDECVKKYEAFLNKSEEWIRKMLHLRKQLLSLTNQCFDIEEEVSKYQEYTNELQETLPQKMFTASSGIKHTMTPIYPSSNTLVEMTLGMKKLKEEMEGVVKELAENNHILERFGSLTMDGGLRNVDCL

Sequence of CK1δ (P48730 whole entry): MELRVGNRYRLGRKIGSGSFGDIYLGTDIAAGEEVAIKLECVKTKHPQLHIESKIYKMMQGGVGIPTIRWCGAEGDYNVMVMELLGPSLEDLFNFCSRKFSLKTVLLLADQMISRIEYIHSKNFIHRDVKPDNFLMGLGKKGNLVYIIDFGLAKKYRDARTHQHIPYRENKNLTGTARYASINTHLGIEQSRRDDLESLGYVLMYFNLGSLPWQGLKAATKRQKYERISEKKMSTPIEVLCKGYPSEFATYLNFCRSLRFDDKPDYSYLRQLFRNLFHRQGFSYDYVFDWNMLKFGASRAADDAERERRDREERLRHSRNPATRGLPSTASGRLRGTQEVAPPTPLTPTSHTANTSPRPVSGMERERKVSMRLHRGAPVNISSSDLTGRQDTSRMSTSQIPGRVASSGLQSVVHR
Sequence of IRAK1 (P51617 whole entry): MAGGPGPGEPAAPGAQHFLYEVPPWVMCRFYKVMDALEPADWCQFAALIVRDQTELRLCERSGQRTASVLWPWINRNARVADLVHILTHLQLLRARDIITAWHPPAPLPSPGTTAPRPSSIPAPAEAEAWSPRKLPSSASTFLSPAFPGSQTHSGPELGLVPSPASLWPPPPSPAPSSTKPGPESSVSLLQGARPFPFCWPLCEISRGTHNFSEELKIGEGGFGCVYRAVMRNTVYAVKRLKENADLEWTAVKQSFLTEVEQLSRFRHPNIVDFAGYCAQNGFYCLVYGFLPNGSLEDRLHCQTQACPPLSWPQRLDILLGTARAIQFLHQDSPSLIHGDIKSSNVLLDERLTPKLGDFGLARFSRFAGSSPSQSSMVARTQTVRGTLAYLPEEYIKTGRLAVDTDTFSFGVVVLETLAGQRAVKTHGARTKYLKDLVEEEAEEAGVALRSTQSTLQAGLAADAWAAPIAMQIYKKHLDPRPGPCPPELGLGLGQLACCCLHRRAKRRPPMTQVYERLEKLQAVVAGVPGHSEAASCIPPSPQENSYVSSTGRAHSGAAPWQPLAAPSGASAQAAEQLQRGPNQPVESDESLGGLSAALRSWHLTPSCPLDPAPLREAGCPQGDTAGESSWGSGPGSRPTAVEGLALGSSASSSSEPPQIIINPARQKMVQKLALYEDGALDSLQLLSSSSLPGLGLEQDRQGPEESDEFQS
Sequence of Fyn (P06241 whole entry): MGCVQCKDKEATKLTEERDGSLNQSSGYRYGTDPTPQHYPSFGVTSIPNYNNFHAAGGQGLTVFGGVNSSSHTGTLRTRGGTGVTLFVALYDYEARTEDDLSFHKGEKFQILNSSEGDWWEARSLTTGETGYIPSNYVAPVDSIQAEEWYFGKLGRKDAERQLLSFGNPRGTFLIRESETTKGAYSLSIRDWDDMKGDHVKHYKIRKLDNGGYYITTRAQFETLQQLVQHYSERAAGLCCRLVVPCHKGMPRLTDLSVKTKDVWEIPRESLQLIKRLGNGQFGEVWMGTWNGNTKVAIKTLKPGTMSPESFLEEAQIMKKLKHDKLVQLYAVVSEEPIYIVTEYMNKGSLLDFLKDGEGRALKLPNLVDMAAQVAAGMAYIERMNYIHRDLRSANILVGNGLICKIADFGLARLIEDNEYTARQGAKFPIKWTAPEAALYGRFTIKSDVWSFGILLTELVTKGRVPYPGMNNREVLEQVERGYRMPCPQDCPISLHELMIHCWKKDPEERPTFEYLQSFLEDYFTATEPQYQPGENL
Sequence of Fer (P16591 whole entry): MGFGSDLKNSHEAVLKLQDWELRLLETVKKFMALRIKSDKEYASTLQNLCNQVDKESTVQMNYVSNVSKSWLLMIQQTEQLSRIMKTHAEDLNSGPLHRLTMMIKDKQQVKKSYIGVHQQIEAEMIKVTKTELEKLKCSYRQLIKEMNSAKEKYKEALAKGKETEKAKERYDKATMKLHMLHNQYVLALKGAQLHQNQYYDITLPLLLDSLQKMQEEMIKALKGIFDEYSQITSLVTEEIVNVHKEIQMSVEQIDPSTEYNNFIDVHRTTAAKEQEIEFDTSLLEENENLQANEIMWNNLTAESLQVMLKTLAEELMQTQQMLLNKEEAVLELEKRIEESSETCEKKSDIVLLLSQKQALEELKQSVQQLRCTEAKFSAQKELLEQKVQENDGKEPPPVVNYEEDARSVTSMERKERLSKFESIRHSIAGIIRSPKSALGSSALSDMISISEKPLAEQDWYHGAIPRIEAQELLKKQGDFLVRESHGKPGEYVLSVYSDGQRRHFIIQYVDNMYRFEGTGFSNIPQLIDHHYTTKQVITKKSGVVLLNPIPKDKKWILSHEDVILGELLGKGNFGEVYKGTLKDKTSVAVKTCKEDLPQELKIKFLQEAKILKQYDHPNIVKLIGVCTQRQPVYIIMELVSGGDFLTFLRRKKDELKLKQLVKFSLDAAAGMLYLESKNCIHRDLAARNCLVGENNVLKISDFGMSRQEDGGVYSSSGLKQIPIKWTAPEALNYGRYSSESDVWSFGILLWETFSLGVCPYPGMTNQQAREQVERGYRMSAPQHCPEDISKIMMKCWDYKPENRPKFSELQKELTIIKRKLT
Sequence of MSK1 (O75582 whole entry): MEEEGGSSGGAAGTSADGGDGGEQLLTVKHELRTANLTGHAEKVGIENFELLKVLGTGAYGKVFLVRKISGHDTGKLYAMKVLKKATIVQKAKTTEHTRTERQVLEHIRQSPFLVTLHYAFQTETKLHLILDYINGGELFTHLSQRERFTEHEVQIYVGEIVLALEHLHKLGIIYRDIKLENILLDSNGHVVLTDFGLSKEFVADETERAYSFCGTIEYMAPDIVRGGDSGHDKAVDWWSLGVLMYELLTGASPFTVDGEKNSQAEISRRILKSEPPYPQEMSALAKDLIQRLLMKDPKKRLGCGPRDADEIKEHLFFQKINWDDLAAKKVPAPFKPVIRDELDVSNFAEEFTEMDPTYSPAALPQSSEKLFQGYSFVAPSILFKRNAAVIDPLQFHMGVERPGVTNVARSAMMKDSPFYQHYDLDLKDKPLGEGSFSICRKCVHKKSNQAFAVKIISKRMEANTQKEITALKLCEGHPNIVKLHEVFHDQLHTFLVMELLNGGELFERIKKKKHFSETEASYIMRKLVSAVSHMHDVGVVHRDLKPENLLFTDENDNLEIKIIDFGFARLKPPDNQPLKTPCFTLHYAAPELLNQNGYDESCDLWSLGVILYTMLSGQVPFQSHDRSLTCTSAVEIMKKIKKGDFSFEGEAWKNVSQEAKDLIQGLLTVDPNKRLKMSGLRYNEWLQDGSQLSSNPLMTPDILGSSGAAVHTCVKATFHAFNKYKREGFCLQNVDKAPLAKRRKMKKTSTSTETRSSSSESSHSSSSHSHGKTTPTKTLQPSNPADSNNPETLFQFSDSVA
Sequence of PKBβ (P31751 whole entry): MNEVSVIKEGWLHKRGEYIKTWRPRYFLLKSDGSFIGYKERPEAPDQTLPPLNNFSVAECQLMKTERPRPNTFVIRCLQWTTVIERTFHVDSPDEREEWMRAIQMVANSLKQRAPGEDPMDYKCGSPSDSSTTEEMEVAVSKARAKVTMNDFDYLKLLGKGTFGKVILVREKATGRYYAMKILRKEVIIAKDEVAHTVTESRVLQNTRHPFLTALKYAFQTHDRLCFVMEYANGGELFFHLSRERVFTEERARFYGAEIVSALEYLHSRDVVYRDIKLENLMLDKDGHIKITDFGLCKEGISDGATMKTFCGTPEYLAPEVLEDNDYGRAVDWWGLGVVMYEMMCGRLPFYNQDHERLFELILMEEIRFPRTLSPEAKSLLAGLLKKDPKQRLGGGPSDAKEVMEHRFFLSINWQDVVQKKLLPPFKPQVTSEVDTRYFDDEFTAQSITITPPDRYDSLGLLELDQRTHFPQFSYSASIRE
Sequence of cSRC (P12931 whole entry): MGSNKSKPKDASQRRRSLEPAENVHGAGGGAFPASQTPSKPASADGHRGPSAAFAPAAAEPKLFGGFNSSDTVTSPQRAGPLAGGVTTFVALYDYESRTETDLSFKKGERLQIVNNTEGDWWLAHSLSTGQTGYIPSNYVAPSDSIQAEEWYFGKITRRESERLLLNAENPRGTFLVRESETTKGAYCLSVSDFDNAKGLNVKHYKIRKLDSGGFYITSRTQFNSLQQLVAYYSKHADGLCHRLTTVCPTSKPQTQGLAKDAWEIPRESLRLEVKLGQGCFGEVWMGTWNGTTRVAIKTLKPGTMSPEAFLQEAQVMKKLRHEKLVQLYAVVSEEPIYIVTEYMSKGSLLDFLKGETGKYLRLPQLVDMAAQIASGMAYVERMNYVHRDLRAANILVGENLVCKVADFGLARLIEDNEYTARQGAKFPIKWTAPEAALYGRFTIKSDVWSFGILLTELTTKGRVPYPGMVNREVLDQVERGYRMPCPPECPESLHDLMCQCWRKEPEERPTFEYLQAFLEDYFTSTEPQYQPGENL
Sequence of PKCβII (P05771 1-673 isoform P05771-2): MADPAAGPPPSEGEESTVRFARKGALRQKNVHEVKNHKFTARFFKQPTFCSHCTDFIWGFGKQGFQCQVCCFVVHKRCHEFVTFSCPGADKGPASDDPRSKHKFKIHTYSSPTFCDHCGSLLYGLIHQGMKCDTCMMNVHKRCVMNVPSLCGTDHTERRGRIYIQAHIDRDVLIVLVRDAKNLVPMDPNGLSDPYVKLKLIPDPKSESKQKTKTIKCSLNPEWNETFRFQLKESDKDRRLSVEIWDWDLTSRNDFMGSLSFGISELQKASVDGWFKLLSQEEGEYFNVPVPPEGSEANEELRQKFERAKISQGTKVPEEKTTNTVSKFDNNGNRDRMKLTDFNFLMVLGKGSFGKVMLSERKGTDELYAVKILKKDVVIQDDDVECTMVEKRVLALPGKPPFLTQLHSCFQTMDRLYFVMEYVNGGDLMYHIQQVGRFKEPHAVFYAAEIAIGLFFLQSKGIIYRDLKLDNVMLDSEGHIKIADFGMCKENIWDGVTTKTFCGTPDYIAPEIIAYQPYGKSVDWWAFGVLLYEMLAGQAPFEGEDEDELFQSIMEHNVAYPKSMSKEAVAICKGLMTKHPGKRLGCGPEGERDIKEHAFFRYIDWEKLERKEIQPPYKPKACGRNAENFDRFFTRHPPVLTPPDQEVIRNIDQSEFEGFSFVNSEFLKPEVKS

remaining activity at 50 µg/mL (CDK3/cyclinE): 8%
remaining activity at 5 µg/mL (CK1δ; 5 ug/ml): 32%
remaining activity at 25 µg/mL (CK1δ; 25 ug/ml): 16%
remaining activity at 50 µg/mL (CK1δ; 50 ug/ml): 12%
remaining activity at 1 µg/mL (cSRC; 1 ug/ml): 92%
remaining activity at 5 µg/mL (cSRC; 5 ug/ml): 50%
remaining activity at 25 µg/mL (cSRC; 25 ug/ml): 27%
remaining activity at 50 µg/mL (cSRC; 50 ug/ml): 21%
remaining activity at 1 µg/mL (DRAK1; 1 ug/ml): 133%
remaining activity at 25 µg/mL (DRAK1; 25 ug/ml): 19%
remaining activity at 50 µg/mL (DRAK1; 50 ug/ml): -5%
remaining activity at 1 µg/mL (Fer; 1 ug/ml): 55%
remaining activity at 5 µg/mL (Fer; 5 ug/ml): 20%
remaining activity at 25 µg/mL (Fer; 25 ug/ml): 10%
remaining activity at 50 µg/mL (Fer; 50 ug/ml): 1%
remaining activity at 5 µg/mL (Fgr; 5 ug/ml): 36%
remaining activity at 25 µg/mL (Fgr; 25 ug/ml): 10%
remaining activity at 1 µg/mL (Fyn; 1 ug/ml): 104%
remaining activity at 5 µg/mL (Fyn; 5 ug/ml): 66%
remaining activity at 25 µg/mL (Fyn; 25 ug/ml): 42%
remaining activity at 50 µg/mL (Fyn; 50 ug/ml): 18%
remaining activity at 25 µg/mL (IGF-1R; 25 ug/ml): 129%
remaining activity at 50 µg/mL (IGF-1R; 50 ug/ml): 139%
remaining activity at 1 µg/mL (IRAK1; 1 ug/ml): 129%
remaining activity at 5 µg/mL (IRAK1; 5 ug/ml): 104%
remaining activity at 50 µg/mL (IRAK1; 50 ug/ml): 36%
remaining activity at 1 µg/mL (MSK1; 1 ug/ml): 114%
remaining activity at 5 µg/mL (MSK1; 5 ug/ml): 92%
remaining activity at 25 µg/mL (MSK1; 25 ug/ml): 31%
remaining activity at 1 µg/mL (MSK2; 1 ug/ml): 126%
remaining activity at 5 µg/mL (MSK2; 5 ug/ml): 61%
remaining activity at 25 µg/mL (MSK2; 25 ug/ml): 8%
remaining activity at 50 µg/mL (MSK2; 50 ug/ml): 19%
remaining activity at 1 µg/mL (PKBβ; 1 ug/ml): 146%
remaining activity at 5 µg/mL (PKBβ; 5 ug/ml): 102%
remaining activity at 25 µg/mL (PKBβ; 25 ug/ml): 1%
remaining activity at 50 µg/mL (PKBβ; 50 ug/ml): 8%
remaining activity at 1 µg/mL (PKCβII; 1 ug/ml): 108%
remaining activity at 5 µg/mL (PKCβII; 5 ug/ml): 108%
remaining activity at 25 µg/mL (PKCβII; 25 ug/ml): 71%
remaining activity at 50 µg/mL (PKCβII; 50 ug/ml): 79%
remaining activity at 1 µg/mL (PRAK; 1 ug/ml): 101%
remaining activity at 5 µg/mL (PRAK; 5 ug/ml): 53%
remaining activity at 1 µg/mL (TBK1; 1 ug/ml): 104%
remaining activity at 5 µg/mL (TBK1; 5 ug/ml): 71%
remaining activity at 25 µg/mL (TBK1; 25 ug/ml): 45%
remaining activity at 50 µg/mL (TBK1; 50 ug/ml): 42%
Structure (SMILES): COc1cc(O)c(CC=C(C)C)c(O)c1C(=O)/C=C/c1ccc(O)cc1 [Xanthohumol, xanthohumol]
